{
  "source": "patent US20230017266A1",
  "about": "“Cyclooxygenase-2 Inhibition for the Treatment of SAA-high Asthma” (THE USA, AS REPRESENTED BY THE SECRETARY, DEPT. OF HEALTH …, priority 2019, published 2023)",
  "key": {"PTGS2 mRNA": {"tested_on": "PTGS2 mRNA", "experiment": "PTGS2 mRNA levels in CD14+ monocytes cultured with HDL+SAA1 (qRT-PCR)", "type": "cell-based, human", "conditions": "24 h", "method": "Quantitative RT-PCR (qRT-PCR). Total RNA was purified using the Direct-Zol™ RNA MiniPrep kit and total RNA (100 ng) was reverse transcribed into cDNA using the High-Capacity cDNA Reverse Transcription Kit (Applied Biosystems, Foster City, Calif.). Polymerase chain reactions (PCR) were performed on duplicate cDNA samples using TaqMan Universal PCR Master Mix, FAM-MGB dye-labeled Taqman® PTGS2 probe (Assay ID Hs00153133_m1, catalog #4331182), and a 7900 Real Time PCR System running Sequence Detector version 2.4 software, all from Applied Biosystems (Foster City, Calif.). Gene expression was quantified relative to expression of 18S rRNA using the control sample as a calibrator to calculate the difference in Ct values (ΔΔCt) and presented as relative mRNA expression. For quantification of miR-155-5p expression, miRNA present in total RNA (10 ng) was converted to cDNA using the microRNA cDNA Reverse Transcription kit (Applied Biosystems, Foster City, Calif.). Polymerase chain reaction (PCR) was performed on duplicate cDNA samples using TaqMan Universal PCR Master Mix, Taqman® MicroRNA Assay for has-miR-155-5p (Assay ID #002623, catalog #4427975), and a 7900HT Fast Real-Time PCR System running Sequence Detector version 2.4 software (ThermoFisher Scientific, Waltham, Mass.). miR-155-5p expression was quantified relative to expression of U6 snRNA using the control sample as calibrator to calculate the difference in Ct values (ΔΔCt) and presented as relative mRNA expression.\nmiR-155 Inhibition. CD14+ monocytes were suspended in 4D human monocyte Nucleofector™ solution (Amaxa™ P3 Primary Cell 4D-Nucleofector™ X kit, catalog #V4XP-3024, Lonza, Walkersville, Md.) to a final concentration of 2×10^6 cells/100 […] at room temperature. […] CD14^+ monocytes were plated at a density of 4×10^4 cells/well in a 96-well plate to collect culture media for cytokine quantification and the remaining cells were plated in a 24-well plate to isolate total RNA for qRT-PCR. After 72 h, cytokine secretion was quantified by ELISA and mRNA levels were quantified by qRT-PCR."}, "THP-1 monocytes": {"tested_on": "THP-1 monocytes", "experiment": "Cytokine secretion by THP-1 monocytes stimulated with endogenous SAA-high HDL", "type": "cell-based, human", "conditions": "pre-treated 1 h; for ability of endogenous SAA-high HDL to induce cytokine secretion: SAA-high HDL 24 h", "method": "HDL Isolation and Analysis. HDL was isolated from plasma by size-exclusion chromatography using two Superose 6 columns in series on an Akta FPLC system (GE Healthcare Life Sciences, Pittsburgh, Pa.), as previously described. FPLC fractions were assayed for cholesterol content (Cholesterol E, catalog #996021611, FUJIFILM Wako Diagnostics USA, Mountain View, Calif.) to identify HDL fractions, which were pooled and concentrated using a 10-kDa exclusion filter (Amicon Ultra Centrifuge Filters, Millipore, Darmstadt, Germany). The content of SAA in purified HDL was quantified using the human SAA ELISA kit, while APOA1 was quantified using the human APOA1 ELISA development kit (Mabtech, Nacka Strand, Sweden). THP-1 monocytes (American Type Culture Collection, Manassas, Va.) were treated with HDL from SAA-high asthmatics (n=16), as well as HDL from asthmatics with the lowest SAA levels (n=16), and the quantity of […], IL-6, TNF-α, and IL-10 secreted into culture medium over 24 h was assayed using Human DuoSet ELISA kits (R&D Systems, Minneapolis, Minn.) and data were acquired using a SpectraMax M2 spectrophotometer (Molecular Devices, San Jose, Calif.).\nStimulation of THP-1 monocytes with endogenous HDL from SAA-high asthmatics and suppression of cytokine secretion were further studied. HDL (4 μg of protein/ml) isolated from plasma from a SAA-high asthmatic (SAA-high HDL) and from a healthy non-asthmatic subject (Normal HDL) were used to stimulate THP-1 monocytes for 24 h. THP-1 monocytes were pre-treated with the FPR2 antagonist, WRW4 or water (40 μM) as the vehicle control, or A438079 or DMSO (10 μM) as the vehicle control, for 1 h prior to stimulation with normal or SAA-high HDL for 24 h. One-way ANOVA with Sidak's multiple comparisons test. ****P<0.0001.\nHDL ([…] of protein/ml) isolated from plasma from a SAA-high asthmatic (SAA-high HDL) and from a healthy non-asthmatic subject (Normal HDL) were used to stimulate THP-1 monocytes for 24 h. THP-1 monocytes were pre-treated with BAY-11-7082 ([…] (1 μM) or DMSO (10 μM) as the vehicle control for 1 h, as indicated, prior to stimulation with normal or SAA-high HDL for 24 h. One-way ANOVA with Sidak's multiple comparisons test. ****P<0.0001.\nHDL (4 μg of protein/ml) isolated from plasma from a SAA-high asthmatic (SAA-high HDL) and from a healthy non-asthmatic subject (Normal HDL) were used to stimulate THP-1 monocytes for 24 h. A. THP-1 monocytes were pre-treated with celecoxib or DMSO (0.01 μM) as the vehicle control for 1 h, as indicated, prior to stimulation with normal or SAA-high HDL for 24 h. One-way ANOVA with Sidak's multiple comparisons test. ****P<0.0001."}, "[1]": {"conditions": "A438079 10 μM, SAA-high HDL 4 μg of protein/ml 24 h"}},
  "data": [
    {"smiles": "Clc1cccc(-c2nnnn2Cc2cccnc2)c1Cl", "note": "[A438079]", "values": [
      {"measurement": "HDL+SAA1-mediated increases in PTGS2 mRNA", "setting": "PTGS2 mRNA; A438079 10 μM", "value": "attenuated"},
      {"measurement": "IL-1β secretion induced by endogenous SAA-high HDL", "setting": "THP-1 monocytes; [1]", "value": "inhibited"},
      {"measurement": "IL-6 secretion induced by endogenous SAA-high HDL", "setting": "THP-1 monocytes; [1]", "value": "inhibited"},
      {"measurement": "TNF-α secretion induced by endogenous SAA-high HDL", "setting": "THP-1 monocytes; [1]", "value": "inhibited"}
    ]},
    {"smiles": "Cc1ccc(S(=O)(=O)/C=C/C#N)cc1", "note": "[BAY 11-7082]", "values": [
      {"measurement": "HDL+SAA1-mediated increases in PTGS2 mRNA", "setting": "PTGS2 mRNA; BAY-11-7082 10 μM", "value": "prevented"},
      {"measurement": "ability of endogenous SAA-high HDL to induce cytokine secretion", "setting": "THP-1 monocytes; BAY-11-7082 10 μM", "value": "abrogate"}
    ]},
    {"smiles": "NC(=O)Nc1sc(-c2ccc(F)cc2)cc1C(N)=O", "note": "[TPCA1]", "values": [
      {"measurement": "HDL+SAA1-mediated increases in PTGS2 mRNA", "setting": "PTGS2 mRNA; TPCA-1 1 μM", "value": "prevented"},
      {"measurement": "ability of endogenous SAA-high HDL to induce cytokine secretion", "setting": "THP-1 monocytes; TPCA-1 1 μM", "value": "abrogate"}
    ]}
  ]
}
